Measurements taken from patent US10457710B2, “Antimicrobial peptides, their variants and uses” (priority 2015, dated 2019).
Where a SMILES comes first, the peptide text is derived from it. [ ]: non-standard residue; d: D form.

How the values were obtained:
Format in all cases: cell-based
[1] = tested on: clinical strains of S. aureus; assay: MIC, microdilution, clinical strains; settings: 0.02% BSA, 0.2% acetic acid
Summary of the method: (§1)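 MIC = lowest peptide concentration without visual growth after 20–24 h at 37° C. Range 0.125–128 μg/ml, inoculum 5.0×10^5 cfu/ml, microdilution format. Antifungal tests used potato dextrose broth; bacterial tests used MH broth.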

[2] = tested on: clinical strains of Proteus mirabilis; assay: MIC, microdilution, clinical strains; settings: 0.02% BSA, 0.2% acetic acid
Summary of the method: as §1

[3] = tested on: clinical strains of E. coli; assay: MIC, microdilution, clinical strains; settings: microdilution, Muller Hinton broth-cation adjusted, 0.02% BSA, 0.2% acetic acid
Summary of the method: as §1

[4] = tested on: clinical strains of S. pneumoniae; assay: MIC, microdilution, clinical strains; settings: 0.02% BSA, 0.2% acetic acid
Summary of the method: as §1

[5] = tested on: clinical strains of Serratia marcescens; assay: MIC, microdilution, clinical strains; settings: 0.02% BSA, 0.2% acetic acid
Summary of the method: as §1

[6] = tested on: clinical strains of P. aeruginosa; assay: MIC, microdilution, clinical strains; settings: 0.02% BSA, 0.2% acetic acid
Summary of the method: as §1

[7] = tested on: clinical strains of E. cloacae; assay: MIC, microdilution, clinical strains; settings: 0.02% BSA, 0.2% acetic acid
Summary of the method: as §1

[8] = tested on: clinical strains of K. pneumoniae; assay: MIC, microdilution, clinical strains; settings: 0.02% BSA, 0.2% acetic acid
Summary of the method: as §1

[9] = tested on: clinical strains of A. johnsonii; assay: MIC, microdilution, clinical strains; parameters: unit: μg/ml; settings: Acinetobacter johnsonii strain 1, Muller Hinton broth-cation adjusted, 0.02% BSA, 0.2% acetic acid
Summary of the method: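 For A. johnsonii, Mueller Hinton broth; for the clinical yeasts, Potato dextrose broth. In both, 5.0×10^5 cfu/ml was exposed to peptide over 0.125–128 μg/ml for 20–24 h at 37 °C, and MIC was read as the lowest concentration showing no visual growth.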

[10] = tested on: clinical strains of Acinetobacter baumannii; assay: MIC, microdilution, clinical strains; parameters: unit: μg/ml; settings: 0.02% BSA, 0.2% acetic acid
Summary of the method: as §1

C. glabrata = assay: MIC, clinical yeast strains; settings: D-form peptide, concentrations tested 0.125 to 128 μg/ml
Summary of the method: (§2)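 Visual growth inhibition defined the MIC in a microdilution assay where fungal strains were cultured in potato dextrose broth instead of MH broth. Cell density was set to 5.0×10^5 cfu/ml, and incubation lasted 20–24 h at 37° C across a 0.125–128 μg/ml series.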

Candida albicans = assay: MIC, clinical yeast strains; settings: D-form peptide, concentrations tested 0.125 to 128 μg/ml
Summary of the method: as §2

C. parapsilosis = assay: MIC, clinical yeast strains; settings: D-form peptide, concentrations tested 0.125 to 128 μg/ml
Summary of the method: as §2

C. quillermondiae = assay: MIC, clinical yeast strains; settings: clinical yeast strain 1; D-form peptide; concentrations tested 0.125 to 128 μg/ml
Summary of the method: as §2

SMILES: CC[C@@H](C)[C@@H](NC(=O)[C@@H](CCSC)NC(=O)[C@@H](C)NC(=O)[C@@H](CCCNC(=N)N)NC(=O)[C@@H](Cc1c[nH]c2ccccc12)NC(=O)[C@@H](CCCCN)NC(=O)[C@H](N)CCCNC(=N)N)C(=O)N[C@H](CCCNC(=N)N)C(=O)N[C@H](CC(C)C)C(=O)N[C@H](Cc1c[nH]cn1)C(=O)N[C@H](C)C(=O)N[C@H](CCCCN)C(=O)N[C@H](CCCNC(=N)N)C(=O)N[C@H](CC(C)C)C(=O)N[C@H](CCCNC(=N)N)C(=O)N[C@H](CCCCN)C(=O)O [Chain104D] (H-[dR][dK][dW][dR][dA][dM][dI][dR][dL][dH][dA][dK][dR][dL][dR][dK]-OH)
- Minimum inhibitory concentration ([1]; Staphylococcus aureus strain 1, Muller Hinton broth-cation adjusted): 4
- Minimum inhibitory concentration ([1]; Staphylococcus aureus strain 2, Muller Hinton broth-cation adjusted): 2
- Minimum inhibitory concentration ([1]; Staphylococcus aureus strain 3, Muller Hinton broth-cation adjusted): 4
- Minimum inhibitory concentration ([1]; Staphylococcus aureus strain 4, Muller Hinton broth-cation adjusted): 2
- Minimum inhibitory concentration ([1]; Staphylococcus aureus strain 5, Muller Hinton broth-cation adjusted): 4
- Minimum inhibitory concentration ([2]; Proteus mirabilis strain 1, Muller Hinton broth-cation adjusted): >128
- Minimum inhibitory concentration ([2]; Proteus mirabilis strain 2, Muller Hinton broth-cation adjusted): 32
- Minimum inhibitory concentration ([2]; Proteus mirabilis strain 3, Muller Hinton broth-cation adjusted): 128
- Minimum inhibitory concentration ([2]; Proteus mirabilis strain 4, Muller Hinton broth-cation adjusted): >128
- Minimum inhibitory concentration ([2]; Proteus mirabilis strain 5, Muller Hinton broth-cation adjusted): >128
- Minimum inhibitory concentration ([3]; Escherichia coli strain 1): 4
- Minimum inhibitory concentration ([3]; Escherichia coli strain 2): 4
- Minimum inhibitory concentration ([3]; Escherichia coli strain 3): 4
- Minimum inhibitory concentration ([3]; Escherichia coli strain 4): 4
- Minimum inhibitory concentration ([3]; Escherichia coli strain 5): 4
- Minimum inhibitory concentration ([4]; Streptococcus pneumoniae strain 1, Muller Hinton broth-cation adjusted): 4
- Minimum inhibitory concentration ([4]; Streptococcus pneumoniae strain 2, Muller Hinton broth-cation adjusted): 2
- Minimum inhibitory concentration ([4]; Streptococcus pneumoniae strain 3, Muller Hinton broth-cation adjusted): 1
- Minimum inhibitory concentration ([4]; Streptococcus pneumoniae strain 4, Muller Hinton broth-cation adjusted): 4
- Minimum inhibitory concentration ([4]; Streptococcus pneumoniae strain 5, Muller Hinton broth-cation adjusted): 1
- Minimum inhibitory concentration ([5]; Serratia marcescens strain 1, Muller Hinton broth-cation adjusted): >128
- Minimum inhibitory concentration ([5]; Serratia marcescens strain 2, Muller Hinton broth-cation adjusted): >128
- Minimum inhibitory concentration ([5]; Serratia marcescens strain 3, Muller Hinton broth-cation adjusted): >128
- Minimum inhibitory concentration ([5]; Serratia marcescens strain 4, Muller Hinton broth-cation adjusted): >128
- Minimum inhibitory concentration ([5]; Serratia marcescens strain 5, Muller Hinton broth-cation adjusted): 128
- Minimum inhibitory concentration ([6]; Pseudomonas aeruginosa strain 1, Muller Hinton broth-cation adjusted): 4
- Minimum inhibitory concentration ([6]; Pseudomonas aeruginosa strain 2, Muller Hinton broth-cation adjusted): 2
- Minimum inhibitory concentration ([6]; Pseudomonas aeruginosa strain 3, Muller Hinton broth-cation adjusted): 4
- Minimum inhibitory concentration ([6]; Pseudomonas aeruginosa strain 4, Muller Hinton broth-cation adjusted): 2
- Minimum inhibitory concentration ([6]; Pseudomonas aeruginosa strain 5, Muller Hinton broth-cation adjusted): 1
- Minimum inhibitory concentration ([7]; Enterobacter cloacae strain 1, Muller Hinton broth-cation adjusted): 4
- Minimum inhibitory concentration ([7]; Enterobacter cloacae strain 2, Muller Hinton broth-cation adjusted): 4
- Minimum inhibitory concentration ([7]; Enterobacter cloacae strain 3, Muller Hinton broth-cation adjusted): 8
- Minimum inhibitory concentration ([7]; Enterobacter cloacae strain 4, Muller Hinton broth-cation adjusted): 4
- Minimum inhibitory concentration ([7]; Enterobacter cloacae strain 5, Muller Hinton broth-cation adjusted): 2
- Minimum inhibitory concentration ([8]; Klebsiella pneumoniae strain 1, Muller Hinton broth-cation adjusted): 8
- Minimum inhibitory concentration ([8]; Klebsiella pneumoniae strain 2, Muller Hinton broth-cation adjusted): 4
- Minimum inhibitory concentration ([8]; Klebsiella pneumoniae strain 3, Muller Hinton broth-cation adjusted): 8
- Minimum inhibitory concentration ([8]; Klebsiella pneumoniae strain 4, Muller Hinton broth-cation adjusted): 16
- Minimum inhibitory concentration ([8]; Klebsiella pneumoniae strain 5, Muller Hinton broth-cation adjusted): 4
- Minimum inhibitory concentration [9]: 8
- Minimum inhibitory concentration ([10]; Acinetobacter baumannii strain 1, Muller Hinton broth-cation adjusted): 16
- Minimum inhibitory concentration ([10]; Acinetobacter baumannii strain 2, Muller Hinton broth-cation adjusted): 8
- Minimum inhibitory concentration ([10]; Acinetobacter baumannii strain 3, Muller Hinton broth-cation adjusted): 8
- Minimum inhibitory concentration ([10]; Acinetobacter baumannii strain 4, Muller Hinton broth-cation adjusted): 4
- Minimum inhibitory concentration ([10]; Acinetobacter baumannii strain 5, Muller Hinton broth-cation adjusted): 8
- Minimum inhibitory concentration, C. glabrata strain 1 (C. glabrata; clinical yeast strain 1): 8
- Minimum inhibitory concentration, C. glabrata strain 2 (C. glabrata; clinical yeast strain 2): 8
- Minimum inhibitory concentration, C. glabrata strain 3 (C. glabrata; clinical yeast strain 3): 8
- Minimum inhibitory concentration, C. glabrata strain 4 (C. glabrata; clinical yeast strain 4): 16
- Minimum inhibitory concentration, Candida albicans strain 1 (Candida albicans; clinical yeast strain 1): 8
- Minimum inhibitory concentration, Candida albicans strain 2 (Candida albicans; clinical yeast strain 2): 8
- Minimum inhibitory concentration, Candida albicans strain 3 (Candida albicans; clinical yeast strain 3): 8
- Minimum inhibitory concentration, Candida albicans strain 4 (Candida albicans; clinical yeast strain 4): 8
- Minimum inhibitory concentration, Candida albicans strain 5 (Candida albicans; clinical yeast strain 5): 8
- Minimum inhibitory concentration, C. parapsilosis strain 1 (C. parapsilosis; clinical yeast strain 1): 4
- Minimum inhibitory concentration, C. parapsilosis strain 2 (C. parapsilosis; clinical yeast strain 2): 4
- Minimum inhibitory concentration, C. parapsilosis strain 3 (C. parapsilosis; clinical yeast strain 3): 4
- Minimum inhibitory concentration, C. parapsilosis strain 4 (C. parapsilosis; clinical yeast strain 4): 2
- Minimum inhibitory concentration, C. quillermondiae strain 1 (C. quillermondiae): 4
